{"source": "patent US11434242B2", "about": "“Dopamine-b-hydroxylase inhibitors” (BIAL-PORTELA & Cª, S.A., priority 2017, dated 2022)", "target": "T1, Dopamine beta hydroxylase (Homo sapiens, UniProt P09172)", "T1 construct": "125 μl of plasma; tissue Instituto Português do Sangue Transplantação; host or cells: human plasma from healthy donors", "T1 sequence (P09172 40-617 limits assumed)": "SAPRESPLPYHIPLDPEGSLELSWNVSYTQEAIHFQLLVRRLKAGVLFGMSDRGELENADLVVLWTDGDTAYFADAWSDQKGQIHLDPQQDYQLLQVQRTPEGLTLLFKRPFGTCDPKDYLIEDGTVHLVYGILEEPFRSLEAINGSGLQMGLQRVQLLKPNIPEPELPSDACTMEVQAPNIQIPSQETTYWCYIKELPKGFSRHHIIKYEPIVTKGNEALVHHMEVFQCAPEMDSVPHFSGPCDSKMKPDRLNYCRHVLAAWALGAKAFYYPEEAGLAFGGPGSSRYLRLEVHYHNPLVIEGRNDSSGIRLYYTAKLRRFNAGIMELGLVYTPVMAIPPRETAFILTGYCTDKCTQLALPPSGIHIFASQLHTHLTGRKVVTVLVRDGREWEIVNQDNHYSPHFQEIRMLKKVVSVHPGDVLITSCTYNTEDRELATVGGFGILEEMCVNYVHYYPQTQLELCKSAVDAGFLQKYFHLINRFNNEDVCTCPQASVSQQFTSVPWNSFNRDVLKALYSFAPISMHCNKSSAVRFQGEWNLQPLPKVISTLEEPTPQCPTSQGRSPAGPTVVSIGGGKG", "test": "Dopamine beta hydroxylase activity in human plasma", "format": "biochemical", "conditions": "for Plasma (0.01 μM), activity in % of control: inhibitor 0.01 μM; for Plasma (0.1 μM), activity in % of control: inhibitor 0.1 μM; for Plasma (1 μM), activity in % of control: inhibitor 1 μM", "how_it_was_run": "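Octopamine production from tyramine over 45 min at 37° C, measured photometrically at 330 nm after SCX extraction and periodate oxidation against an octopamine standard curve, indicates plasma DβH activity. Compounds tested at final 10, 100 and 1000 nM in human plasma, pH 5.0 cofactor buffer, 10 min preincubation; results as % of control.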"}
{"compound": "Cl.Fc1ccc(Cl)c(F)c1[C@@H]1Cc2c(CCN3CCOCC3)[nH]c(=S)n2C1", "note": "[Example 196, (S)-6-(3-chloro-2,6-difluorophenyl)-1-(2-morpholinoethyl)-2,5,6,7-tetrahydro-3H-pyrrolo[1,2-c]imidazole-3-thione Hydrochloride]", "values": [{"measurement": "Plasma (0.01 μM), activity in % of control", "result": "102.2 % of control"}, {"measurement": "Plasma (0.1 μM), activity in % of control", "result": "68.6 % of control"}]}
{"compound": "O=C(Cc1[nH]c(=S)n2c1C[C@H](c1c(F)ccc(Br)c1F)C2)NC1CCCC1CO", "note": "(stereo partly drawn) [Example 120, 2-((R)-6-(3-bromo-2,6-difluorophenyl)-3-thioxo-2,5,6,7-tetrahydro-3H-pyrrolo[1,2-c]imidazol-1-yl)-N-(2-(hydroxymethyl)cyclopentyl)acetamide]", "values": [{"measurement": "Plasma (0.01 μM), activity in % of control", "result": "132.5 % of control"}, {"measurement": "Plasma (0.1 μM), activity in % of control", "result": "86.2 % of control"}]}
{"compound": "Cn1c(CC(=O)NCc2cnccn2)c2n(c1=S)C[C@H](c1c(F)ccc(Cl)c1F)C2", "note": "[Example 328, (S)-2-(6-(3-chloro-2,6-difluorophenyl)-2-methyl-3-thioxo-2,5,6,7-tetrahydro-3H-pyrrolo[1,2-c]imidazol-1-yl)-N-(pyrazin-2-ylmethyl)acetamide]", "values": [{"measurement": "Plasma (0.01 μM), activity in % of control", "result": "63.1 % of control"}, {"measurement": "Plasma (0.1 μM), activity in % of control", "result": "9.4 % of control"}]}
{"compound": "Cn1c(CC(=O)N2CCC[C@@H]2C(F)(F)F)c2n(c1=S)C[C@@H](c1c(F)ccc(F)c1F)C2", "note": "[Example 344, 2-((R)-2-methyl-3-thioxo-6-(2,3,6-trifluorophenyl)-2,5,6,7-tetrahydro-3H-pyrrolo[1,2-c]imidazol-1-yl)-1-((R)-2-(trifluoromethyl)pyrrolidin-1-yl)ethan-1-one]", "values": [{"measurement": "Plasma (0.01 μM), activity in % of control", "result": "88.2 % of control"}, {"measurement": "Plasma (0.1 μM), activity in % of control", "result": "73.7 % of control"}]}
{"compound": "O=C(CCc1[nH]c(=S)n2c1C[C@H](c1c(F)c(F)cc(F)c1F)C2)N1CCCC1", "note": "[Example 204, (R)-1-(pyrrolidin-1-yl)-3-(6-(2,3,5,6-tetrafluorophenyl)-3-thioxo-2,5,6,7-tetrahydro-3H-pyrrolo[1,2-c]imidazol-1-yl)propan-1-one]", "values": [{"measurement": "Plasma (0.01 μM), activity in % of control", "result": "26.5 % of control"}, {"measurement": "Plasma (0.1 μM), activity in % of control", "result": "1.1 % of control"}]}
{"compound": "O=C(Cc1[nH]c(=S)n2c1C[C@H](c1c(F)ccc(Br)c1F)C2)NCCO", "note": "[Example 119, (R)-2-(6-(3-bromo-2,6-difluorophenyl)-3-thioxo-2,5,6,7-tetrahydro-3H-pyrrolo[1,2-c]imidazol-1-yl)-N-(2-hydroxyethyl)acetamide]", "values": [{"measurement": "Plasma (0.01 μM), activity in % of control", "result": "118.2 % of control"}, {"measurement": "Plasma (0.1 μM), activity in % of control", "result": "87.7 % of control"}]}
{"compound": "CN(C)CCCNC(=O)Cc1[nH]c(=S)n2c1C[C@H](c1c(F)c(F)cc(F)c1F)C2.Cl", "note": "[Example 71, (R)—N-(3-(dimethylamino)propyl)-2-(6-(2,3,5,6-tetrafluorophenyl)-3-thioxo-2,5,6,7-tetrahydro-3H-pyrrolo[1,2-c]imidazol-1-yl)acetamide Hydrochloride]", "values": [{"measurement": "Plasma (0.1 μM), activity in % of control", "result": "57.0 % of control"}, {"measurement": "Plasma (1 μM), activity in % of control", "result": "11.9 % of control"}]}
{"compound": "CNC(=O)Cc1[nH]c(=S)n2c1[C@@H]1C[C@]1(c1cc(F)cc(Cl)c1)C2", "note": "[Example 68, 2-((5aS,6aR)-5a-(3-chloro-5-fluorophenyl)-3-thioxo-2,3,5,5a,6,6a-hexahydrocyclopropa[3,4]pyrrolo[1,2-c]imidazol-1-yl)-N-methylacetamide]", "values": [{"measurement": "Plasma (0.1 μM), activity in % of control", "result": "55.6 % of control"}, {"measurement": "Plasma (1 μM), activity in % of control", "result": "13.5 % of control"}]}
{"compound": "O=C(O)C(Cc1[nH]c(=S)n2c1C[C@H](c1c(F)c(F)cc(F)c1F)C2)C(=O)O", "note": "[Example 201, (R)-2-((6-(2,3,5,6-tetrafluorophenyl)-3-thioxo-2,5,6,7-tetrahydro-3H-pyrrolo[1,2-c]imidazol-1-yl)methyl)malonic Acid]", "values": [{"measurement": "Plasma (0.01 μM), activity in % of control", "result": "62.4 % of control"}, {"measurement": "Plasma (0.1 μM), activity in % of control", "result": "13.3 % of control"}]}
{"compound": "O=C(Cc1[nH]c(=S)n2c1C[C@H](c1c(F)c(F)cc(F)c1F)C2)NC1CCS(=O)(=O)CC1", "note": "[Example 129, (R)—N-(1,1-dioxidotetrahydro-2H-thiopyran-4-yl)-2-(6-(2,3,5,6-tetrafluorophenyl)-3-thioxo-2,5,6,7-tetrahydro-3H-pyrrolo[1,2-c]imidazol-1-yl)acetamide]", "values": [{"measurement": "Plasma (0.01 μM), activity in % of control", "result": "50.1 % of control"}, {"measurement": "Plasma (0.1 μM), activity in % of control", "result": "10.3 % of control"}]}
{"compound": "CN(CCc1[nH]c(=S)n2c1[C@@H]1C[C@]1(c1cc(Br)ccc1F)C2)C1CCCC1.F", "note": "[Example 190, (5aS,6aR)-5a-(5-bromo-2-fluorophenyl)-1-(2-(cyclopentyl(methyl)amino)ethyl)-5,5a,6,6a-tetrahydrocyclopropa[3,4]pyrrolo[1,2-c]imidazole-3(2H)-thione hydrofluoride]", "values": [{"measurement": "Plasma (0.01 μM), activity in % of control", "result": "68.6 % of control"}, {"measurement": "Plasma (0.1 μM), activity in % of control", "result": "19.9 % of control"}]}
{"compound": "O=C(Cc1[nH]c(=S)n2c1C[C@H](c1c(F)c(F)cc(F)c1F)C2)NCCO", "note": "[Example 72, (R)—N-(2-hydroxyethyl)-2-(6-(2,3,5,6-tetrafluorophenyl)-3-thioxo-2,5,6,7-tetrahydro-3H-pyrrolo[1,2-c]imidazol-1-yl)acetamide]", "values": [{"measurement": "Plasma (0.1 μM), activity in % of control", "result": "90.8 % of control"}, {"measurement": "Plasma (1 μM), activity in % of control", "result": "28.9 % of control"}]}
{"compound": "Cn1c(CC(=O)Nc2cnoc2)c2n(c1=S)C[C@@H](c1c(F)ccc(F)c1F)C2", "note": "[Example 347, (R)—N-(isoxazol-4-yl)-2-(2-methyl-3-thioxo-6-(2,3,6-trifluorophenyl)-2,5,6,7-tetrahydro-3H-pyrrolo[1,2-c]imidazol-1-yl)acetamide]", "values": [{"measurement": "Plasma (0.01 μM), activity in % of control", "result": "79.0 % of control"}, {"measurement": "Plasma (0.1 μM), activity in % of control", "result": "17.7 % of control"}]}
{"compound": "O=C(Cc1[nH]c(=S)n2c1[C@@H]1C[C@]1(c1cc(Br)ccc1F)C2)N1CCCC1", "note": "[Example 70, 2-((5aS,6aR)-5a-(5-bromo-2-fluorophenyl)-3-thioxo-2,3,5,5a,6,6a-hexahydrocyclopropa[3,4]pyrrolo[1,2-c]imidazol-1-yl)-1-(pyrrolidin-1-yl)ethan-1-one]", "values": [{"measurement": "Plasma (0.1 μM), activity in % of control", "result": "36.6 % of control"}, {"measurement": "Plasma (1 μM), activity in % of control", "result": "2.9 % of control"}]}
{"compound": "Cn1ccnc1CCc1[nH]c(=S)n2c1C[C@H](c1c(F)c(F)cc(F)c1F)C2", "note": "[Example 217, (R)-1-(2-(1-methyl-1H-imidazol-2-yl)ethyl)-6-(2,3,5,6-tetrafluorophenyl)-2,5,6,7-tetrahydro-3H-pyrrolo[1,2-c]imidazole-3-thione]", "values": [{"measurement": "Plasma (0.01 μM), activity in % of control", "result": "99.8 % of control"}, {"measurement": "Plasma (0.1 μM), activity in % of control", "result": "92.3 % of control"}]}
{"compound": "Cn1c(CC(=O)N[C@@H]2CCCOC2)c2n(c1=S)C[C@H](c1c(F)ccc(Cl)c1F)C2", "note": "[Example 327, 2-((S)-6-(3-chloro-2,6-difluorophenyl)-2-methyl-3-thioxo-2,5,6,7-tetrahydro-3H-pyrrolo[1,2-c]imidazol-1-yl)-N—((R)-tetrahydro-2H-pyran-3-yl)acetamide]", "values": [{"measurement": "Plasma (0.01 μM), activity in % of control", "result": "49.9 % of control"}, {"measurement": "Plasma (0.1 μM), activity in % of control", "result": "7.0 % of control"}]}
{"compound": "Cn1c(CCC(=O)N[C@@H]2CCOC2)c2n(c1=S)C[C@@H](c1c(F)ccc(F)c1F)C2", "note": "[Example 265, 3-((R)-2-methyl-3-thioxo-6-(2,3,6-trifluorophenyl)-2,5,6,7-tetrahydro-3H-pyrrolo[1,2-c]imidazol-1-yl)-N—((R)-tetrahydrofuran-3-yl)propanamide]", "values": [{"measurement": "Plasma (0.01 μM), activity in % of control", "result": "94.9 % of control"}, {"measurement": "Plasma (0.1 μM), activity in % of control", "result": "70.6 % of control"}]}
{"compound": "Cn1c(CC(=O)N2CCC(CF)C2)c2n(c1=S)C[C@@H](c1c(F)ccc(F)c1F)C2", "note": "(stereo partly drawn) [Example 353, 1-(3-(fluoromethyl)pyrrolidin-1-yl)-2-((R)-2-methyl-3-thioxo-6-(2,3,6-trifluorophenyl)-2,5,6,7-tetrahydro-3H-pyrrolo[1,2-c]imidazol-1-yl)ethan-1-one]", "values": [{"measurement": "Plasma (0.01 μM), activity in % of control", "result": "90.6 % of control"}, {"measurement": "Plasma (0.1 μM), activity in % of control", "result": "38.4 % of control"}]}
{"compound": "O=C(O)Cc1[nH]c(=S)n2c1C[C@@H](c1c(F)ccc(Br)c1F)C2", "note": "[Example 12, (S)-2-(6-(3-bromo-2,6-difluorophenyl)-3-thioxo-2,5,6,7-tetrahydro-3H-pyrrolo[1,2-c]imidazol-1-yl)acetic Acid]", "values": [{"measurement": "Plasma (0.1 μM), activity in % of control", "result": "30.8 % of control"}, {"measurement": "Plasma (1 μM), activity in % of control", "result": "3.3 % of control"}]}
{"compound": "O=C(Cc1[nH]c(=S)n2c1C[C@H](c1c(F)ccc(Br)c1F)C2)N[C@@H]1CCCC[C@H]1O", "note": "[Example 160, 2-((R)-6-(3-bromo-2,6-difluorophenyl)-3-thioxo-2,5,6,7-tetrahydro-3H-pyrrolo[1,2-c]imidazol-1-yl)-N-((1R,2R)-2-hydroxycyclohexyl)acetamide]", "values": [{"measurement": "Plasma (0.01 μM), activity in % of control", "result": "84.7 % of control"}, {"measurement": "Plasma (0.1 μM), activity in % of control", "result": "50.8 % of control"}]}
{"compound": "NC(=O)C1CCN(C(=O)Cc2[nH]c(=S)n3c2C[C@H](c2c(F)c(F)cc(F)c2F)C3)CC1", "note": "[Example 86, (R)-1-(2-(6-(2,3,5,6-tetrafluorophenyl)-3-thioxo-2,5,6,7-tetrahydro-3H-pyrrolo[1,2-c]imidazol-1-yl)acetyl)piperidine-4-carboxamide]", "values": [{"measurement": "Plasma (0.1 μM), activity in % of control", "result": "70.9 % of control"}, {"measurement": "Plasma (1 μM), activity in % of control", "result": "14.7 % of control"}]}
